# Test results published in patent US20220313701A1, “MODULATORS OF TREX1” (Constellation Pharmaceuticals, Inc., priority 2019, published 2022).
# Experiments:
# [1] = molecular target: T1, human TREX2 (residues M44-A279) (Homo sapiens, UniProt Q9BQ50); assay: TREX2 Biochemical Assay (fluorescence assay, degradation of dsDNA substrate); details: 2.5 nM TREX2, 60 nM dsDNA substrate, 25 minutes at room temperature
# T1 construct: human TREX2 (residues M44-A279, expressed in E. coli); His-Tev (His tag with TEV site) (N); made in house; host or cells: E. coli
# T1 sequence (Q9BQ50 44-279 isoform Q9BQ50-1): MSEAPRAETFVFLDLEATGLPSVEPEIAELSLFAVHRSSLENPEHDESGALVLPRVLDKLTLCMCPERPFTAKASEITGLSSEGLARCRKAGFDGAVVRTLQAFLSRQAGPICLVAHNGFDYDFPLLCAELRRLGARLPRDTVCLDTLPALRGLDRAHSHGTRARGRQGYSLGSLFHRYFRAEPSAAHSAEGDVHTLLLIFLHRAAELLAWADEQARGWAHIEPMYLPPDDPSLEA
# Description: Degradation of the dsDNA liberates free fluorophore to produce a fluorescent signal. Specifically, 7.5 μL of N-terminally His-Tev tagged human TREX2 (residues M44-A279, expressed in E. coli and purified in house) in reaction buffer (50 mM Tris (pH 7.4), 150 mM NaCl, 2 mM DTT, 0.1 mg/mL BSA, 0.01% (v/v) Tween-20 and 100 mM MgCl2) was added to a 384-well Black ProxiPlate Plus (Perkin Elmer) which already contained compound (150 nL) at varying concentrations as a 10 point dose-response in DMSO. To this was added 7.5 μL of dsDNA substrate (Strand A: 5′ TEX615/GCT AGG CAG 3′; Strand B: 5′ CTG CCT AGC/IAbRQSp (IDT)) in reaction buffer. Final concentrations were 2.5 nM TREX2, 60 nM dsDNA substrate in reaction buffer with 1.0% DMSO (v/v). After 25 minutes at room temperature, reactions were quenched by the addition of 5 μL of stop buffer (same as reaction buffer plus 200 mM EDTA). Final concentrations in the quenched reaction mixture were […] TREX2, 45 nM DNA and 50 mM EDTA in a volume of 20 μL. After a 5-minute incubation at room temperature, plates were read in a laser sourced Envision (Perkin-Elmer), measuring fluorescence at 615 nm following excitation w/570 nm light. IC50 values were calculated by comparing the measured fluorescence at 615 nm ratio relative to control wells pre-quenched w/stop buffer (100% inhibition) and no inhibitor (0% inhibition) controls as using non-linear least square four parameter fits and either Genedata or GraphPad Prism (GraphPad Software, Inc.).
# full length human TREX1 = molecular target: T2, full length human TREX1 (Homo sapiens, UniProt Q9NSU2); assay: TREX1 Biochemical Assay (fluorescence assay, degradation of dsDNA substrate); details: 150 pM TREX1, 60 nM dsDNA substrate, 25 minutes at room temperature
# T2 construct: N-terminally His-Tev tagged full length human TREX1; His-Tev (His tag with TEV site) (N); made in house; host or cells: E. coli
# T2 sequence (Q9NSU2 1-314): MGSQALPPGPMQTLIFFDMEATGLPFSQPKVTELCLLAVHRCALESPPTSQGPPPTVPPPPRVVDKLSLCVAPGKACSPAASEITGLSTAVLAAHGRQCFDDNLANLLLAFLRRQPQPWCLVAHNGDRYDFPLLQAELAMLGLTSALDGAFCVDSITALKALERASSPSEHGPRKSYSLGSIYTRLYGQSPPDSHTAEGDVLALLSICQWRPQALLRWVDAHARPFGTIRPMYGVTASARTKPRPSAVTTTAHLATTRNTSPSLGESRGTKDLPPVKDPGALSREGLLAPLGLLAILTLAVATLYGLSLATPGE
# Description: Degradation of the dsDNA liberates free fluorophore to produce a fluorescent signal. Specifically, 7.5 μL of N-terminally His-Tev tagged full length human TREX1 (expressed in E. coli and purified in house) in reaction buffer (50 mM Tris (pH 7.4), 150 mM NaCl, 2 mM DTT, 0.1 mg/mL BSA, 0.01% (v/v) Tween-20 and either 100 mM MgCl2) was added to a 384-well Black ProxiPlate Plus (Perkin Elmer) which already contained compound (150 nL) at varying concentrations as a 10 point dose-response in DMSO. To this was added 7.5 μL of dsDNA substrate (Strand A: 5′ TEX615/GCT AGG CAG 3′; Strand B: 5′ CTG CCT AGC/IAbRQSp (Integrated DNA Technologies)) in reaction buffer. Final concentrations were 150 pM TREX1, 60 nM dsDNA substrate in reaction buffer with 1.0% DMSO (v/v). After 25 minutes at room temperature, reactions were quenched by the addition of 5 μL of stop buffer (same as reaction buffer plus 200 mM EDTA). Final concentrations in the quenched reaction were 112.5 pM TREX1, 45 nM DNA and 50 mM EDTA in a volume of 20 μL. After a 5-minute incubation at room temperature, plates were read in a laser sourced Envision (Perkin-Elmer), measuring fluorescence at 615 nm following excitation w/570 nm light. IC50 values were calculated by comparing the measured fluorescence at 615 nm ratio relative to control wells pre-quenched w/stop buffer (100% inhibition) and no inhibitor (0% inhibition) controls as using non-linear least square four parameter fits and either Genedata or GraphPad Prism (GraphPad Software, Inc.).
SMILES,IC50 [1] [µM],IC50 (full length human TREX1) [µM]
"N#Cc1cccc(-c2cncc(N3CCC(O)(c4ccc(F)cc4)CC3)n2)c1 [Example 24, 3-(6-(4-(4-fluorophenyl)-4-hydroxypiperidin-1-yl)pyrazin-2-yl)benzonitrile]",> 100,> 10
"OC1(c2ccc(F)cc2)CCN(c2cncc(-c3ccccc3F)n2)CC1 [Example 25, 4-(4-fluorophenyl)-1-(6-(2-fluorophenyl)pyrazin-2-yl)piperidin-4-ol]",> 100,1 to 10
"OC1(c2ccc(F)cc2)CCN(c2cncc(-c3cccc(F)c3)n2)CC1 [Example 26, 4-(4-fluorophenyl)-1-(6-(3-fluorophenyl)pyrazin-2-yl)piperidin-4-ol]",> 100,1 to 10
"OC1(c2ccc(F)cc2)CCN(c2cncc(-c3ccc(F)cc3)n2)CC1 [Example 27, 4-(4-fluorophenyl)-1-(6-(4-fluorophenyl)pyrazin-2-yl)piperidin-4-ol]",> 100,> 10
"COc1ccccc1-c1cncc(N2CCC(O)(c3ccc(F)cc3)CC2)n1 [Example 28, 4-(4-fluorophenyl)-1-(6-(2-methoxyphenyl)pyrazin-2-yl)piperidin-4-ol]",> 100,> 10
"COc1ccc(-c2cncc(N3CCC(O)(c4ccc(F)cc4)CC3)n2)cc1 [Example 29, 4-(4-fluorophenyl)-1-(6-(4-methoxyphenyl)pyrazin-2-yl)piperidin-4-ol]",> 100,> 10
"OC1(c2ccc(F)cc2)CCN(c2cncc(-c3cccc(C(F)(F)F)c3)n2)CC1 [Example 32, 4-(4-fluorophenyl)-1-(6-(3-(trifluoromethyl)phenyl)pyrazin-2-yl)piperidin-4-ol]",> 100,> 10
"OC1(c2ccc(F)cc2)CCN(c2cncc(-c3ccncc3)n2)CC1 [Example 35, 4-(4-fluorophenyl)-1-(6-(pyridin-4-yl)pyrazin-2-yl)piperidin-4-ol]",> 100,1 to 10
"Cn1cc(-c2nccc(N3CCC(O)(c4ccc(F)cc4)CC3)n2)cn1 [Example 36, 4-(4-fluorophenyl)-1-(2-(1-methyl-1H-pyrazol-4-yl)pyrimidin-4-yl)piperidin-4-ol]",> 100,0.1 to 1
"Cn1cc(-c2ccnc(N3CCC(O)(c4ccc(F)cc4)CC3)n2)cn1 [Example 37, 4-(4-fluorophenyl)-1-(4-(1-methyl-1H-pyrazol-4-yl)pyrimidin-2-yl)piperidin-4-ol]",> 100,1 to 10
"Cc1nn(C)cc1-c1cc(C(=O)NCc2ccccc2)cc(N2CCC(O)(c3ccc(F)c(F)c3)CC2)n1 [Example 40, N-benzyl-2-(4-(3,4-difluorophenyl)-4-hydroxypiperidin-1-yl)-6-(1,3-dimethyl-1H-pyrazol-4-yl)isonicotinamide]",> 100,0.1 to 1
"Cc1nn(C)cc1-c1cccc(N2CCC(O)(c3ccc(F)c(F)c3)CC2)n1 [Example 42, 4-(3,4-difluorophenyl)-1-(6-(1,3-dimethyl-1H-pyrazol-4-yl)pyridin-2-yl)piperidin-4-ol]",> 100,1 to 10
"Cc1nn(C)cc1-c1cncc(N2CCC(O)(c3cc(F)c(F)c(F)c3)CC2)n1 [Example 47, 1-(6-(1,3-dimethyl-1H-pyrazol-4-yl)pyrazin-2-yl)-4-(3,4,5-trifluorophenyl)piperidin-4-ol]",10 to 100,< 0.1

# Next, values leading:
IC50 [1] [µM],IC50 (full length human TREX1) [µM],SMILES
> 100,1 to 10,"N#Cc1ccc(-c2cncc(N3CCC(O)(c4ccc(F)cc4)CC3)n2)cc1 [Example 30, 4-(6-(4-(4-fluorophenyl)-4-hydroxypiperidin-1-yl)pyrazin-2-yl)benzonitrile]"
> 100,1 to 10,"OC1(c2ccc(F)cc2)CCN(c2cncc(-c3ccccc3C(F)(F)F)n2)CC1 [Example 31, 4-(4-fluorophenyl)-1-(6-(2-(trifluoromethyl)phenyl)pyrazin-2-yl)piperidin-4-ol]"
> 100,> 10,"OC1(c2ccc(F)cc2)CCN(c2cncc(-c3ccc(C(F)(F)F)cc3)n2)CC1 [Example 33, 4-(4-fluorophenyl)-1-(6-(4-(trifluoromethyl)phenyl)pyrazin-2-yl)piperidin-4-ol]"
> 100,1 to 10,"Cc1ccc(-c2cncc(N3CCC(O)(c4ccc(F)cc4)CC3)n2)cc1 [Example 34, 4-(4-fluorophenyl)-1-(6-(p-tolyl)pyrazin-2-yl)piperidin-4-ol]"
> 100,1 to 10,"COC(=O)c1cc(-c2cnn(C)c2)nc(N2CCC(O)(c3ccc(F)cc3)CC2)c1 [Example 38, methyl 2-(4-(4-fluorophenyl)-4-hydroxypiperidin-1-yl)-6-(1-methyl-1H-pyrazol-4-yl)isonicotinate]"
10 to 100,< 0.1,"Cc1nn(C)cc1-c1cc(C(N)=O)cc(N2CCC(O)(c3ccc(F)c(F)c3)CC2)n1 [Example 39, 2-(4-(3,4-difluorophenyl)-4-hydroxypiperidin-1-yl)-6-(1,3-dimethyl-1H-pyrazol-4-yl)isonicotinamide]"
10 to 100,< 0.1,"Cc1nn(C)cc1-c1cc(C(=O)N2CCCCC2)cc(N2CCC(O)(c3ccc(F)c(F)c3)CC2)n1 [Example 41, (2-(4-(3,4-difluorophenyl)-4-hydroxypiperidin-1-yl)-6-(1,3-dimethyl-1H-pyrazol-4-yl)pyridin-4-yl)(piperidin-1-yl)methanone]"
> 100,0.1 to 1,Cc1cc(-c2cn(C)nc2C)nc(N2CCC(O)(c3ccc(F)c(F)c3)CC2)c1 [Example 43]
10 to 100,0.1 to 1,"Cc1nn(C)cc1-c1cc(CO)cc(N2CCC(O)(c3ccc(F)c(F)c3)CC2)n1 [Example 44, 4-(3,4-difluorophenyl)-1-(6-(1,3-dimethyl-1H-pyrazol-4-yl)-4-(hydroxymethyl)pyridin-2-yl)piperidin-4-ol]"
10 to 100,< 0.1,"Cc1nn(C)cc1-c1cc(C(C)(C)O)cc(N2CCC(O)(c3ccc(F)c(F)c3)CC2)n1 [Example 45, 4-(3,4-difluorophenyl)-1-(6-(1,3-dimethyl-1H-pyrazol-4-yl)-4-(2-hydroxypropan-2-yl)pyridin-2-yl)piperidin-4-ol]"
> 100,0.1 to 1,"Cc1nn(C)cc1-c1cc(C(F)(F)F)cc(N2CCC(O)(c3ccc(F)c(F)c3)CC2)n1 [Example 46, 4-(3,4-difluorophenyl)-1-(6-(1,3-dimethyl-1H-pyrazol-4-yl)-4-(trifluoromethyl)pyridin-2-yl)piperidin-4-ol]"
